Results from the NIST ThermoML archive (doi:10.1021/je900278v).
± gives the expanded uncertainty stated by the source.

Tests used:
[1] = 101 kPa, Liquid; for viscosity: 293.15 K, Capillary tube (Ostwald / Ubbelohde) method; for mass density: 298.15 K
[2] = xn = mol fraction of the nth substance listed; settings: 101 kPa, Liquid; for viscosity: 293.15 K, Capillary tube (Ostwald / Ubbelohde) method; for mass density: 298.15 K

BrCCBr [1,2-dibromoethane]
[1]
Settings | mass density [kg/m3] | viscosity [mPa·s]
– | 2179.59 ± 2.2 | 1.733 ± 0.011

BrCCBr [1,2-dibromoethane] + CCCCCCO
[2]
Settings | mass density [kg/m3] | viscosity [mPa·s]
x1 = 0.0402 | 856.608 ± 0.41 | 4.925 ± 0.033
x1 = 0.0682 | 883.413 ± 0.38 | 4.703 ± 0.031
x1 = 0.1276 | 941.916 ± 0.31 | 4.275 ± 0.028
x1 = 0.2056 | 1022.36 ± 0.28 | 3.781 ± 0.025
x1 = 0.2686 | 1090.47 ± 0.37 | 3.412 ± 0.022
x1 = 0.3892 | 1228.97 ± 0.57 | 2.862 ± 0.019
x1 = 0.4277 | 1276.43 ± 0.66 | 2.711 ± 0.018
x1 = 0.5444 | 1427.13 ± 0.9 | 2.325 ± 0.015
x1 = 0.6405 | 1562 ± 1.1 | 2.07 ± 0.014
x1 = 0.7326 | 1701.64 ± 1.4 | 1.877 ± 0.012
x1 = 0.8519 | 1899.69 ± 1.7 | 1.726 ± 0.011
x1 = 0.9273 | 2036.52 ± 2 | 1.69 ± 0.011
x1 = 0.9587 | 2096.51 ± 2.1 | 1.692 ± 0.011
x1 = 0.9782 | 2135.29 ± 2.2 | 1.71 ± 0.011
x1 = 1 | 2179.59 ± 2.2 | 1.733 ± 0.011

ClCCCl [1,2-dichloroethane]
[1]
Settings | mass density [kg/m3] | viscosity [mPa·s]
– | 1252.77 ± 0.6 | 0.827 ± 0.007

ClCCCl [1,2-dichloroethane] + CCCCCCO
[2]
Settings | mass density [kg/m3] | viscosity [mPa·s]
x1 = 0.037 | 828.769 ± 0.68 | 5.008 ± 0.032
x1 = 0.0769 | 839.847 ± 0.69 | 4.696 ± 0.03
x1 = 0.1499 | 860.583 ± 0.68 | 4.191 ± 0.027
x1 = 0.2147 | 879.725 ± 0.7 | 3.787 ± 0.025
x1 = 0.2935 | 904.954 ± 0.73 | 3.292 ± 0.023
x1 = 0.3952 | 940.475 ± 0.75 | 2.726 ± 0.02
x1 = 0.4532 | 962.107 ± 0.82 | 2.405 ± 0.018
x1 = 0.5596 | 1005.05 ± 0.84 | 1.894 ± 0.015
x1 = 0.6113 | 1027.55 ± 0.94 | 1.677 ± 0.013
x1 = 0.6971 | 1067.98 ± 1 | 1.372 ± 0.011
x1 = 0.7791 | 1111.06 ± 1.1 | 1.137 ± 0.009
x1 = 0.8563 | 1155.16 ± 1.3 | 0.977 ± 0.008
x1 = 0.9335 | 1205.43 ± 1.4 | 0.873 ± 0.007
x1 = 0.979 | 1236.99 ± 1.5 | 0.833 ± 0.007
x1 = 1 | 1252.77 ± 0.6 | 0.827 ± 0.007

CCCCCCO [hexan-1-ol]
[1]
Settings | mass density [kg/m3] | viscosity [mPa·s]
– | 818.856 ± 0.42 | 5.291 ± 0.03

CCCCCCO [hexan-1-ol] + BrCCBr
[2], x2 = 0
Settings | mass density [kg/m3] | viscosity [mPa·s]
– | 818.856 ± 0.42 | 5.291 ± 0.03

CCCCCCO [hexan-1-ol] + ClC(Cl)=C(Cl)Cl
[2], x2 = 0
Settings | mass density [kg/m3] | viscosity [mPa·s]
– | 818.856 ± 0.42 | 5.291 ± 0.03

CCCCCCO [hexan-1-ol] + ClCCCl
[2], x2 = 0
Settings | mass density [kg/m3] | viscosity [mPa·s]
– | 818.856 ± 0.42 | 5.291 ± 0.03

ClC(Cl)=C(Cl)Cl [tetrachloroethene]
[1]
Settings | mass density [kg/m3] | viscosity [mPa·s]
– | 1622.74 ± 1.2 | 0.89 ± 0.007

ClC(Cl)=C(Cl)Cl [tetrachloroethene] + CCCCCCO
[2]
Settings | mass density [kg/m3] | viscosity [mPa·s]
x1 = 0.0688 | 864.637 ± 0.38 | 4.756 ± 0.031
x1 = 0.123 | 901.521 ± 0.33 | 4.351 ± 0.029
x1 = 0.2457 | 987.759 ± 0.22 | 3.493 ± 0.024
x1 = 0.3618 | 1072.99 ± 0.31 | 2.772 ± 0.02
x1 = 0.4502 | 1140.46 ± 0.41 | 2.308 ± 0.017
x1 = 0.5583 | 1226.3 ± 0.55 | 1.853 ± 0.014
x1 = 0.6518 | 1303.62 ± 0.68 | 1.534 ± 0.012
x1 = 0.7068 | 1350.53 ± 0.76 | 1.382 ± 0.01
x1 = 0.7419 | 1381.18 ± 0.81 | 1.297 ± 0.01
x1 = 0.7797 | 1414.65 ± 0.87 | 1.213 ± 0.009
x1 = 0.8315 | 1461.44 ± 0.95 | 1.116 ± 0.009
x1 = 0.8718 | 1498.8 ± 1 | 1.051 ± 0.008
x1 = 0.9179 | 1542.25 ± 1.1 | 0.982 ± 0.008
x1 = 0.9504 | 1573.61 ± 1.2 | 0.942 ± 0.007
x1 = 1 | 1622.74 ± 1.2 | 0.89 ± 0.007
